Reference: ChEMBL document CHEMBL4725459, “Novel Pyrazoles as Hemoglobin Modulators for Treating Sickle Cell Disease” (ACS Med Chem Lett, 2020)

How the values were obtained:
[1] = Binding affinity to purified human sickle cell hemoglobin by SPR assay
[2] = Stabilization of purified human sickle cell hemoglobin at its oxygenated (R) state assessed as reduction in conversion from oxygenated (R, relaxed state) to deoxygenated (T, tense state) under deoxygenating conditions

| SMILES | IC50 [2] [µM] | Kd [1] [µM] |
| --- | --- | --- |
| C[C@H](Oc1cc2cc(F)cc(F)c2nc1N)c1ncc(F)cc1-n1cccn1 | 3.62 | 0.045 |
| CC(=O)c1nc2[nH]ncc2cc1-n1cccn1 | 3.76 | 0.036 |
| C[C@H](Oc1cc2cc(C(N)=O)cc(F)c2nc1N)c1ncc(F)cc1-n1cccn1 | 3.93 | 0.068 |

Second part, led by results:

| IC50 [2] [µM] | SMILES | Kd [1] [µM] |
| --- | --- | --- |
| 3.83 | C[C@H](Oc1cc2cc(F)ccc2nc1N)c1nc(OCCO)ccc1-n1cccn1 | 0.044 |
| 3.89 | C[C@H](Oc1cc2cc(F)ccc2nc1N)c1cc(OCC(=O)O)ccc1-n1cccn1 | 0.063 |
| 3.6 | C[C@H](Oc1cc2cc(F)ccc2nc1N)c1cc(CCC(=O)O)ccc1-n1cccn1 | 0.188 |
